The values that follow come from patent US20250270200A1, “CTPS1 INHIBITORS AND USES THEREOF” (Nimbus Clotho, Inc., priority 2022, published 2025).

The target of this assay is T1, human CTPS1 (Homo sapiens, UniProt P17812).
T1 sequence (P17812 1-591): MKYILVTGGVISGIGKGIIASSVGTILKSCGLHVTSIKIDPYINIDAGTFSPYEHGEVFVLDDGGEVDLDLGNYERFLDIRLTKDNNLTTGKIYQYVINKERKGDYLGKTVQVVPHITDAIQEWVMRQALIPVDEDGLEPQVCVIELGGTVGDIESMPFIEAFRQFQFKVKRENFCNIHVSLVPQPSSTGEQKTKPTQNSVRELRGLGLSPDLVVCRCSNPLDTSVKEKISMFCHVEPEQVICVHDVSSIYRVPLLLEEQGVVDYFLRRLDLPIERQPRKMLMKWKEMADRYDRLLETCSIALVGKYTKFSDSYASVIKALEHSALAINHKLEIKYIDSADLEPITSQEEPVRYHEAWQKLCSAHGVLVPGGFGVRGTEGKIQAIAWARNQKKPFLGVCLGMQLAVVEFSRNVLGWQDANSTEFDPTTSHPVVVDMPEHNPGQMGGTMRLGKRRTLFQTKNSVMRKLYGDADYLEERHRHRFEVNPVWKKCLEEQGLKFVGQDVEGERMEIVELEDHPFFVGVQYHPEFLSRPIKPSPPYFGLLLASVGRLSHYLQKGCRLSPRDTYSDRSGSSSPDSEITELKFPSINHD
Put plainly: ADP-Glo assay, human CTPS1 enzyme inhibition. The conditions noted are these: wild-type human CTPS1, 25 nM enzyme; ADP-Glo; read-out: ADP-Glo_WT_hCTPS1—25 nM_IC50 (IC50). Type of assay: biochemical. The method, boiled down:
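ADP-Glo luminescence quantified ADP produced by 25 nM purified human CTPS1 (full length, FLAG-His tagged) at 25° C within the linear phase. Final substrates: ATP 120 μM, UTP 160 μM, GTP 60 μM, L-glutamine 100 μM; 1% DMSO; pH 7.4 HEPES buffer with Mg2+, KCl, DTT. Compound pre-incubated with enzyme 10 min, then with ATP/UTP 10 min.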
(In ADP-Glo the light output rises with the ADP produced.)

Each structure is given as a SMILES string. A value given as a limit tells only on which side of the number the result lay.

By IC50 is commonly meant the point on the concentration scale where inhibition reaches its midpoint.

With `CC(C)(O)[C@@H](NC(=O)c1ncc(-c2cnn3ccc(Cl)cc23)s1)c1cc(NS(=O)(=O)C2CC2)ccn1` [I-278, (S)-5-(5-chloropyrazolo[1,5-a]pyridin-3-yl)-N-(1-(4-(cyclopropanesulfonamido)pyridin-2-yl)-2-hydroxy-2-methylpropyl)thiazole-2-carboxamide], the IC50 lay in the range of 50 to 100 nM.
Take `CCOc1cncc(-c2ccc(C(=O)N[C@@H](COC)c3cc(NS(=O)(=O)C4CC4)ccn3)cc2)n1` [I-279, (R)-N-(1-(4-(cyclopropanesulfonamido)pyridin-2-yl)-2-methoxyethyl)-4-(6-ethoxypyrazin-2-yl)benzamide]: the IC50 was 5 to 25 nM.
The same measure for `CCOc1cncc(-c2ccc(C(=O)N[C@H](COC)c3cc(NS(=O)(=O)C4CC4)ccn3)cc2)n1` [I-280, (S)-N-(1-(4-(cyclopropanesulfonamido)pyridin-2-yl)-2-methoxyethyl)-4-(6-ethoxypyrazin-2-yl)benzamide]: 25 to 50 nM; for `CCOc1cncc(-c2cnc(C(=O)N[C@@H](COC)c3ccnc(NS(=O)(=O)C4CC4)n3)s2)n1` [I-281, (R)-N-(1-(2-(cyclopropanesulfonamido)pyrimidin-4-yl)-2-methoxyethyl)-5-(6-ethoxypyrazin-2-yl)thiazole-2-carboxamide]: 5 to 25 nM; for `CCOc1cncc(-c2ccc(C(=O)N[C@@H](COC)c3cc(NS(=O)(=O)C4CC4)ccn3)c(F)c2)n1` [I-282, (R)-N-(1-(4-(cyclopropanesulfonamido)pyridin-2-yl)-2-methoxyethyl)-4-(6-ethoxypyrazin-2-yl)-2-fluorobenzamide]: 25 to 50 nM.
The same measure for `CCOc1cncc(-c2ccc(C(=O)N[C@H](COC)c3cc(NS(=O)(=O)C4CC4)ccn3)c(F)c2)n1` [I-283, (S)-N-(1-(4-(cyclopropanesulfonamido)pyridin-2-yl)-2-methoxyethyl)-4-(6-ethoxypyrazin-2-yl)-2-fluorobenzamide]: 50 to 100 nM; for `COC[C@H](NC(=O)c1ccc(-c2cnn3ccc(Cl)cc23)cc1F)c1cc(NS(=O)(=O)C2CC2)ccn1` [I-284, (R)-4-(5-chloropyrazolo[1,5-a]pyridin-3-yl)-N-(1-(4-(cyclopropanesulfonamido)pyridin-2-yl)-2-methoxyethyl)-2-fluorobenzamide]: above 100 nM; for `COC[C@@H](NC(=O)c1ccc(-c2cnn3ccc(Cl)cc23)cc1F)c1cc(NS(=O)(=O)C2CC2)ccn1` [I-285, (S)-4-(5-chloropyrazolo[1,5-a]pyridin-3-yl)-N-(1-(4-(cyclopropanesulfonamido)pyridin-2-yl)-2-methoxyethyl)-2-fluorobenzamide]: 50 to 100 nM.
With `CCOc1cncc(-c2cnc(C(=O)N[C@H](c3cccc(NS(=O)(=O)C(F)F)c3)[C@@H](C)O)s2)n1` [I-286, N-((1R,2R)-1-(3-((difluoromethyl)sulfonamido)phenyl)-2-hydroxypropyl)-5-(6-ethoxypyrazin-2-yl)thiazole-2-carboxamide], the IC50 was in the range of 5 to 25 nM.
The same measure for `CCOc1cncc(-c2cnc(C(=O)N[C@@H](c3cccc(NS(=O)(=O)C(F)F)c3)[C@@H](C)O)s2)n1` [I-287, N-((1S,2R)-1-(3-((difluoromethyl)sulfonamido)phenyl)-2-hydroxypropyl)-5-(6-ethoxypyrazin-2-yl)thiazole-2-carboxamide]: 5 to 25 nM.
In the case of `CCOc1cncc(-c2cnc(C(=O)N[C@@H](c3cccc(NS(=O)(=O)C(F)F)c3)[C@H](C)O)s2)n1` [I-288, N-((1S,2S)-1-(3-((difluoromethyl)sulfonamido)phenyl)-2-hydroxypropyl)-5-(6-ethoxypyrazin-2-yl)thiazole-2-carboxamide], the concentration for half-maximal inhibition (IC50) lay in the range of 5 to 25 nM.
The same measure for `CCOc1cncc(-c2cnc(C(=O)N[C@H](c3cccc(NS(=O)(=O)C(F)F)c3)[C@H](C)O)s2)n1` [I-289, N-((1R,2S)-1-(3-((difluoromethyl)sulfonamido)phenyl)-2-hydroxypropyl)-5-(6-ethoxypyrazin-2-yl)thiazole-2-carboxamide]: 5 to 25 nM.
The same measure for `CCOc1cncc(-c2cnc(C(=O)N[C@@H](c3cccc(NS(=O)(=O)C(F)F)c3)C(C)(C)O)s2)n1` [I-290, (S)-N-(1-(3-((difluoromethyl)sulfonamido)phenyl)-2-hydroxy-2-methylpropyl)-5-(6-ethoxypyrazin-2-yl)thiazole-2-carboxamide]: 5 to 25 nM.
The same measure for `CCOc1cncc(-c2cnc(C(=O)N[C@H](c3cccc(NS(=O)(=O)C(F)F)c3)C(C)(C)O)s2)n1` [I-291, (R)-N-(1-(3-((difluoromethyl)sulfonamido)phenyl)-2-hydroxy-2-methylpropyl)-5-(6-ethoxypyrazin-2-yl)thiazole-2-carboxamide]: 5 to 25 nM; for `CCOc1cncc(-c2cnc(C(=O)N[C@H](COC)c3cccc(NS(=O)(=O)C(F)F)c3)s2)n1` [I-292, (S)-N-(1-(3-((difluoromethyl)sulfonamido)phenyl)-2-methoxyethyl)-5-(6-ethoxypyrazin-2-yl)thiazole-2-carboxamide]: 5 to 25 nM; for `CCOc1cncc(-c2cnc(C(=O)N[C@@H](COC)c3cccc(NS(=O)(=O)C(F)F)c3)s2)n1` [I-293, (R)-N-(1-(3-((difluoromethyl)sulfonamido)phenyl)-2-methoxyethyl)-5-(6-ethoxypyrazin-2-yl)thiazole-2-carboxamide]: 5 to 25 nM.
